Measurements published in patent US20150238441A1, “Modulation of Branched Amino Acid Concentrations to Treat Metabolic Diseases” (UNIVERSITY OF ROCHESTER, priority 2012, published 2015).

Legend:
C57BL/6 mice = experiment: Plasma metabolite levels in mice after a single 1 mg/kg oral gavage dose of NTBC (GC/MS and LC/MS/MS); assay type: in vivo; conditions: single aqueous 1 mg/kg dose by oral gavage, plasma 6 h following dosing, male C57BL/6 mice
Description: For example, six male C57BL/6 mice (20-25 gm, 8-9 weeks age) were administered a single aqueous 1 mg/kg dose of NTBC by oral gavage. Plasma samples were taken 6 h following dosing. […] We conclude that NTBC can be used to reduce plasma BCAA levels in mice. It should be noted that an early study reported that plasma BCAA levels were unaffected after dosing rats with 10 mg/kg NTBC for 11 weeks (Lock et al., 1996).
The dosing solutions were prepared the day of study dosing, approximately one hour prior to dosing. Compound 1 is nitisinone (also referred to herein as “NTBC”).
54 C56BL/6 mice were housed for at least 3 days prior to dosing and were fully acclimated at study start. All mice were ad libitum fed throughout the study. Water was given ad libitum throughout the holding and study periods. Body weight was measured prior to dosing. Dosing for Group 2 and 3 occurred once on the day of study.
Blood collection (approximately 600 μL) was into pre-chilled (0-4° C.) K3-EDTA containing polypropylene blood collection tubes. After blood collection, blood samples were maintained chilled (2-6° C.) and centrifuged within 30 minutes. […]
Samples were extracted and split into equal parts for analysis on GC/MS and LC/MS/MS platforms. Proprietary software was used to match ions to a library of standards for metabolite identification and for metabolite quantitation by peak area integration.

patients = patients taking the drug; cited from earlier work

Row | Structure (SMILES) | reduction of plasma levels of valine, isoleucine and leucine (BCAAs) (C57BL/6 mice) | patients who suffer gastrointestinal side effects (patients)
1 | O=C1CCCC(=O)C1C(=O)c1ccc(C(F)(F)F)cc1[N+](=O)[O-] [Compound 1, nitisinone] | greater than 25% | –
2 | CN(C)C(=N)N=C(N)N [metformin] | – | More than 60%
